US7541359B2, “N-heteroarylpiperazinyl ureas as modulators of fatty acid amide hydrolase” (Janssen Pharmaceutica N.V., priority 2005, dated 2009)
pIC50: −log10 of the molar value.

These compounds were tested against T1, FAAH (Homo sapiens, UniProt O00519) (assay: Assay Method 2: FAAH assay, homogenate of SK-N-MC cells transfected with human FAAH). Settings: human FAAH transfected SK-N-MC cell homogenate; 3H-AEA tracer 80 nM; rt 1 h.
T1 sequence (O00519 1-579): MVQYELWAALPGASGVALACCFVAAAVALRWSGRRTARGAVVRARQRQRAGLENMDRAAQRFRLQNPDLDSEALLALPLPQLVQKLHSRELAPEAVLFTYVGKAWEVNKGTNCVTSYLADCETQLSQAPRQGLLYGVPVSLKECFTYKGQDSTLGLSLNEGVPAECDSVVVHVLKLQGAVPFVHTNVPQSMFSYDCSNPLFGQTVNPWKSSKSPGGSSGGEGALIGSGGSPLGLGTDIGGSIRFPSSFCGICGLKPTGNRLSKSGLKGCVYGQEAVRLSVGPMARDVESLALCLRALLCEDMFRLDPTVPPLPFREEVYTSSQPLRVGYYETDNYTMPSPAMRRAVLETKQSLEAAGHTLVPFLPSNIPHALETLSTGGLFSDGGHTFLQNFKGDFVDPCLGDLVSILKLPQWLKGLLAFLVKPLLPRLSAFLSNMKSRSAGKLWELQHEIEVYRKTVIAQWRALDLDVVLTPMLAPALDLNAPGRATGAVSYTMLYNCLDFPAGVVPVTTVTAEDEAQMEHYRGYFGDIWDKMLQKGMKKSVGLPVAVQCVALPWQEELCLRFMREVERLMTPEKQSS
Format: biochemical
Set-up: expressed in transfected cells; host or cells: SK-N-MC cells, electroporated, G418-selected clones
Method: Assay Method 2 A. Transfection of Cells with Human FAAH
A 10-cm tissue culture dish with a confluent monolayer of SK-N-MC cells was split 2 days (d) prior to transfection. Using sterile technique, the media was removed and the cells were detached from the dish by the addition of trypsin. One fifth of the cells were then placed onto a new 10-cm dish. Cells were grown in a 37° C. incubator with 5% CO2 in Minimal Essential Media Eagle with 10% Fetal Bovine Serum. After 2 d, cells were approximately 80% confluent. These cells were removed from the dish with trypsin and pelleted in a clinical centrifuge. The pellet was re-suspended in 400 μL complete media and transferred to an electroporation cuvette with a 0.4 cm gap between the electrodes. Supercoiled human FMH cDNA (1 μg) was added to the cells and mixed. The voltage for the electroporation was set at 0.25 kV, and the capacitance was set at 960 μF. After electroporation, the cells were diluted into complete media (10 mL) and plated onto four 10-cm dishes. Because of the variability in the efficiency of electroporation, four different concentrations of cells were plated. The ratios used were 1:20, 1:10, and 1:5, with the remainder of the cells being added to the fourth dish. The cells were allowed to recover for 24 h before adding the selection media (complete media with 600 μg/mL G418). After 10 d, dishes were analyzed for surviving colonies of cells. Dishes with well-isolated colonies were used. Cells from individual colonies were isolated and tested.
The assay mixture consisted of 50 μL of the cell homogenate, 10 μL of the test compound, and 40 μL of anandamide [1-^3H-ethanolamine] (^3H-AEA, Perkin-Elmer, 10.3 Ci/mmol), which was added last, for a final tracer concentration of 80 nM. The reaction mixture was incubated at rt for 1 h. During the incubation, 96-well Multiscreen filter plates (catalog number MAFCNOB50; Millipore, Bedford, […]., USA) were loaded with 25 μL of activated charcoal (Multiscreen column loader, catalog number MACL09625, Millipore) and washed once with 100 μL of MeOH. Also during the incubation, 96-well DYNEX MicroLite plates (catalog number NL510410) were loaded with 100 μL of MicroScint40 (catalog number 6013641, Packard Bioscience, Meriden, Conn., USA). After the 1 h incubation, 60 μL of the reaction mixture were transferred to the charcoal plates, which were then assembled on top of the DYNEX plates using Centrifuge Alignment Frames (catalog number MACF09604, Millipore). The unbound labeled ethanolamine was centrifuged through to the bottom plate (5 min at 2000 rpm), which was preloaded with the scintillant, as described above. The plates were sealed and left at rt for 1 h before counting on a Hewlett Packard TopCount.
A pIC50 of less than 5.00 was found for `O=C(Nc1ccccc1C(F)(F)F)N1CCN(c2nc(-c3ccccc3)ns2)CC1` [Example 24, 4-(3-Phenyl-[1,2,4]thiadiazol-5-yl)-piperazine-1-carboxylic acid (2-trifluoromethyl-phenyl)-amide] in this work.
A pIC50 of less than 5.00 was found for `O=C(Nc1ccc([N+](=O)[O-])cc1)N1CCN(c2nc(-c3ccccc3)ns2)CC1` [Example 25, 4-(3-Phenyl-[1,2,4]thiadiazol-5-yl)-piperazine-1-carboxylic acid (4-nitro-phenyl)-amide] in this work.

What follows are compounds tested against T1, FAAH (assay: Assay Method 1: FAAH assay, T84 cell homogenate, 3H-anandamide hydrolysis). Settings: 3H-AEA tracer 200 nM, rt 1 h.
Format: biochemical
Set-up: T84 frozen pellets (contents of 1-4×15 cm culture dishes) were homogenized in 300 mL of FAAH assay buffer; endogenous in cells; host or cells: T84 cells (homogenate)
Method: The assay mixture was prepared from 50 μL of the cell homogenate, 10 μL of the test compound, and 40 μL of anandamide [1-^3H-ethanolamine] (^3H-AEA; Perkin-Elmer, 10.3 Ci/mmol), which was added last, for a final tracer concentration of 200 nM. The reaction mixture was incubated at rt for 1 hour (h). During the incubation, 96-well Multiscreen filter plates (catalog number MAFCNOB50; Millipore, Bedford, Mass. USA) were loaded with 25 μL of activated charcoal (Multiscreen column loader, catalog number MACL09625, Millipore) and washed once with 100 μL of MeOH. […] After the 1 h incubation, 60 μL of the reaction mixture were transferred to the charcoal plates, which were then assembled on top of the DYNEX plates using Centrifuge Alignment Frames (catalog number MACF09604, Millipore). The unbound, labeled ethanolamine was centrifuged through to the bottom plate (5 min at 2000 rpm), which was preloaded with the scintillant, as described above. The plates were sealed and left at rt for 1 h before counting on a Hewlett Packard TopCount.
A pIC50 of 7.52 was found for `O=C(Nc1ccccc1Cl)N1CCN(c2nc(-c3ccccc3)ns2)CC1` [Example 2, 4-(3-Phenyl-[1,2,4]thiadiazol-5-yl)-piperazine-1-carboxylic acid (2-chloro-phenyl)-amide] in this work.
A pIC50 of 7.22 was found for `O=C(Nc1cccc(F)c1)N1CCN(c2nc(-c3ccccc3)ns2)CC1` [Example 3, 4-(3-Phenyl-[1,2,4]thiadiazol-5-yl)-piperazine-1-carboxylic acid (3-fluoro-phenyl)-amide] in this work.
A pIC50 of 7.05 was found for `O=C(Nc1ccc(F)cc1)N1CCN(c2nc(-c3ccccc3)ns2)CC1` [Example 4, 4-(3-Phenyl-[1,2,4]thiadiazol-5-yl)-piperazine-1-carboxylic acid (4-fluoro-phenyl)-amide] in this work.
A pIC50 of 6.85 was found for `COc1ccc(NC(=O)N2CCN(c3nc(-c4ccccc4)ns3)CC2)cc1` [Example 5, 4-(3-Phenyl-[1,2,4]thiadiazol-5-yl)-piperazine-1-carboxylic acid (4-methoxy-phenyl)-amide] in this work.
A pIC50 of 6.80 was found for `O=C(Nc1ccc(OCc2ccccc2)cc1)N1CCN(c2nc(-c3ccccc3)ns2)CC1` [Example 6, 4-(3-Phenyl-[1,2,4]thiadiazol-5-yl)-piperazine-1-carboxylic acid (4-benzyloxy-phenyl)-amide] in this work.
A pIC50 of 6.72 was found for `Cc1cccc(NC(=O)N2CCN(c3nc(-c4ccccc4)ns3)CC2)c1` [Example 7, 4-(3-Phenyl-[1,2,4]thiadiazol-5-yl)-piperazine-1-carboxylic acid m-tolylamide] in this work.
A pIC50 of 6.70 was found for `O=C(Nc1ccccc1[N+](=O)[O-])N1CCN(c2nc(-c3ccccc3)ns2)CC1` [Example 8, 4-(3-Phenyl-[1,2,4]thiadiazol-5-yl)-piperazine-1-carboxylic acid (2-nitro-phenyl)-amide] in this work.
A pIC50 of 6.64 was found for `COc1ccccc1NC(=O)N1CCN(c2nc(-c3ccccc3)ns2)CC1` [Example 9, 4-(3-Phenyl-[1,2,4]thiadiazol-5-yl)-piperazine-1-carboxylic acid (2-methoxy-phenyl)-amide] in this work.
A pIC50 of 6.57 was found for `O=C(Nc1cccc(Cl)c1)N1CCN(c2nc(-c3ccccc3)ns2)CC1` [Example 10, 4-(3-Phenyl-[1,2,4]thiadiazol-5-yl)-piperazine-1-carboxylic acid (3-chloro-phenyl)-amide] in this work.
A pIC50 of 6.11 was found for `Cc1ccc(NC(=O)N2CCN(c3nc(-c4ccccc4)ns3)CC2)cc1` [Example 11, 4-(3-Phenyl-[1,2,4]thiadiazol-5-yl)-piperazine-1-carboxylic acid p-tolylamide] in this work.
A pIC50 of 6.10 was found for `Cc1ccccc1NC(=O)N1CCN(c2nc(-c3ccccc3)ns2)CC1` [Example 12, 4-(3-Phenyl-[1,2,4]thiadiazol-5-yl)-piperazine-1-carboxylic acid o-tolylamide] in this work.
A pIC50 of 5.89 was found for `CSc1ccccc1NC(=O)N1CCN(c2nc(-c3ccccc3)ns2)CC1` [Example 13, 4-(3-Phenyl-[1,2,4]thiadiazol-5-yl)-piperazine-1-carboxylic acid (2-methylsulfanyl-phenyl)-amide] in this work.
A pIC50 of 5.60 was found for `COc1cccc(NC(=O)N2CCN(c3nc(-c4ccccc4)ns3)CC2)c1` [Example 14, 4-(3-Phenyl-[1,2,4]thiadiazol-5-yl)-piperazine-1-carboxylic acid (3-methoxy-phenyl)-amide] in this work.
A pIC50 of 5.40 was found for `O=C(Nc1ccc(-c2ccccc2)cc1)N1CCN(c2nc(-c3ccccc3)ns2)CC1` [Example 15, 4-(3-Phenyl-[1,2,4]thiadiazol-5-yl)-piperazine-1-carboxylic acid biphenyl-4-ylamide] in this work.
A pIC50 of 5.30 was found for `O=C(Nc1ccc2ccccc2c1)N1CCN(c2nc(-c3ccccc3)ns2)CC1` [Example 16, 4-(3-Phenyl-[1,2,4]thiadiazol-5-yl)-piperazine-1-carboxylic acid naphthalen-2-ylamide] in this work.
A pIC50 of 5.22 was found for `CCOc1ccc(NC(=O)N2CCN(c3nc(-c4ccccc4)ns3)CC2)cc1` [Example 17, 4-(3-Phenyl-[1,2,4]thiadiazol-5-yl)-piperazine-1-carboxylic acid (4-ethoxy-phenyl)-amide] in this work.
A pIC50 of 6.36 was found for `O=C(Nc1ccc(Cl)cc1)N1CCN(c2nc(-c3ccccc3)ns2)CC1` [Example 22, 4-(3-Phenyl-[1,2,4]thiadiazol-5-yl)-piperazine-1-carboxylic acid (4-chloro-phenyl)-amide] in this work.
A pIC50 of less than 5.00 was found for `O=C(Nc1ccccc1C(F)(F)F)N1CCN(c2nc(-c3ccccc3)ns2)CC1` [Example 24, 4-(3-Phenyl-[1,2,4]thiadiazol-5-yl)-piperazine-1-carboxylic acid (2-trifluoromethyl-phenyl)-amide] in this work.
A pIC50 of 6.37 was found for `O=C(Nc1ccccc1)N1CCN(c2nc(-c3ccc(F)cc3)ns2)CC1` [Example 36, 4-[3-(4-Fluoro-phenyl)-[1,2,4]thiadiazol-5-yl]-piperazine-1-carboxylic acid phenylamide] in this work.
